SMILES strings stand for the structures.

This assay deals with T1, ERR1 (also known as ERR-α or ERR-1) (Homo sapiens, UniProt P11474).
T1 sequence (P11474 193-421 limits assumed): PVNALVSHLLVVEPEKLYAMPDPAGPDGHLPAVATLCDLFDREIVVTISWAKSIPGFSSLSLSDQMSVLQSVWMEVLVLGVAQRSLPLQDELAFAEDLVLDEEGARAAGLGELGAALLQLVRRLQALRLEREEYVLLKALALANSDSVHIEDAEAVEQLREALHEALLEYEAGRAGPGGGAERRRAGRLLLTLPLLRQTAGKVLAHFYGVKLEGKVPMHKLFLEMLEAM
As to the kind of experiment: TR-FRET assay: disruption of co-activator peptide (GST-hSRC2) binding to 6His-tagged ERR1 LBD. The format is biochemical. Conditions: 6 nM ERR1LBD, 6 nM GST-SRC-2 peptide, 25° C., 4-18 hours; average of 3 independent experiments. The protocol: Time-Resolved Fluorescence Resonance Energy Transfer (TR-FRET) experiments were performed to examine the functional response of ERR1 (also known as ERR-α or ERR-1) ligands. The TR-FRET assay described herein relied on the conformation of ERR1 for binding to a co-activator peptide: when a test compound binds to ERR1 and alters its conformation, it can disrupt the binding of the co-activator peptide. The components of this homogeneous secondary assay included: the ^6His-tagged-ERR1LBD, a GST-labeled-hSRC2 co-activator polypeptide and a fluorescent donor/acceptor pair from CIS bio international htrf/bioassays (Bedford, Mass.) using both an α-GST Europium Cryptate (Eu) label and an α^6His-XL665 (allophycocyanin) fluorophore.
For TR-FRET measurements, the reaction was buffered in 25 mM Tris pH 8, 2.5 mM Hepes, 20 mM KCl, 1 mM DTT, and 0.05 mg/mL BSA (-lipids). The final concentrations of reagents were 6 nM of ERR1LBD, 6 nM GST-SRC-2 peptide, 30 nM Eu cryptate, and 7.5 nM XL665. Reactions were allowed to reach equilibrium at 25° C. for 4-18 hours before collecting data on the Analyst from LJL Biosystems (Molecular Devices Sunnyvale, Calif.). As a time-resolved method, the samples were excited at […] and emission was collected for 1 ms at both 615 and 665 nm with delays of 400 and 75 μs, respectively. Dose response curves were fitted using a hyperbolic equation and the data reported is the average of 3 independent experiments.
Compounds listed in Tables II below were tested in the above assay, and they are all active modulators of ERR1.
Consider `O=C1N=C(NCCN2CCCC2=O)S/C1=C\c1ccc2c(cnn2Cc2ccc(C(F)(F)F)cc2C(F)(F)F)c1` [Compound 34, 5-[1-(2,4-Bis-trifluoromethyl-benzyl)-1H-indazol-5-ylmethylene]-2-[2-(2-oxo-pyrrolidin-1-yl)-ethylamino]-thiazol-4-one], for which the EC50 (usually the concentration needed to bring the measured effect to its halfway point) came to 30.8 nM. The value for `CN(C)CCCNC1=NC(=O)/C(=C/c2ccc3c(cnn3Cc3ccc(F)cc3C(F)(F)F)c2)S1` [Compound 1, 2-(3-Dimethylamino-propylamino)-5-[1-(4-fluoro-2-trifluoromethyl-benzyl)-1H-indazol-5-ylmethylene]-thiazol-4-one] was 77 nM. The value for `O=C1N=C(NCc2c[nH]nn2)S/C1=C\c1ccc2c(cnn2Cc2ccc(Cl)cc2C(F)(F)F)c1` [Compound 42, 5-[1-(4-Chloro-2-trifluoromethyl-benzyl)-1H-indazol-5-ylmethylene]-2-[(1H-[1,2,3]triazol-4-ylmethyl)-amino]-thiazol-4-one] was 10 nM. The same measure for `O=C1N=C(N[C@@H]2CN3CCC2CC3)S/C1=C\c1ccc2c(cnn2Cc2ccc(C(F)(F)F)cc2C(F)(F)F)c1` [Compound 29, 2-(1-Aza-bicyclo[2.2.2]oct-3(S)-ylamino)-5-[1-(2,4-bis-trifluoromethyl-benzyl)-1H-indazol-5-ylmethylene]-thiazol-4-one]: 39 nM; for `CN1CCN(CCNC2=NC(=O)/C(=C/c3ccc4c(c3)c(I)nn4Cc3ccc(C(F)(F)F)cc3C(F)(F)F)S2)CC1` [Compound 48, 5-({1-[2,4-Bis(trifluoromethyl)benzyl]-3-iodo-1H-indazol-5-yl}methylidene)-2-{[2-(4-methylpiperazin-1-yl)ethyl]amino}-1,3-thiazol-4(5H)-one]: 5 nM; for `COc1ccc(Cn2ncc3cc(/C=C4\SC(NCC(F)F)=NC4=O)ccc32)c(C(F)(F)F)c1` [Compound 11, 2-(2,2-Difluoro-ethylamino)-5-[1-(4-methoxy-2-trifluoromethyl-benzyl)-1H-indazol-5-ylmethylene]-thiazol-4-one]: 3 nM. With `O=C1N=C(NC2CCN(CCO)CC2)S/C1=C\c1ccc2c(cnn2Cc2ccc(Cl)cc2C(F)(F)F)c1` [Compound 22, 5-[1-(4-Chloro-2-trifluoromethyl-benzyl)-1H-indazol-5-ylmethylene]-2-[1-(2-hydroxy-ethyl)-piperidin-4-ylamino]-thiazol-4-one], a half-maximal response (EC50) required 14 nM. Consider `COc1ccc(Cn2ncc3cc(/C=C4\SC(NC[C@@H](O)CO)=NC4=O)ccc32)c(C(F)(F)F)c1` [Compound 10, 2-(2R,3-Dihydroxy-propylamino)-5-[1-(4-methoxy-2-trifluoromethyl-benzyl)-1H-indazol-5-ylmethylene]-thiazol-4-one], for which the EC50 was found to be 4.9 nM.

The molecule `O=C1N=C(NCc2c[nH]nn2)S/C1=C\c1ccc2c(cnn2Cc2ccc(C(F)(F)F)cc2C(F)(F)F)c1` [Compound 43, 5-[1-(2,4-Bis-trifluoromethyl-benzyl)-1H-indazol-5-ylmethylene]-2-[(1H-[1,2,3]triazol-4-ylmethyl)-amino]-thiazol-4-one] registered an EC50 of 19 nM. The value for `O=C1N=C(N[C@@H]2CNC[C@H]2O)S/C1=C\c1ccc2c(cnn2Cc2ccc(Cl)cc2C(F)(F)F)c1` [Compound 47, (5Z)-5-({1-[4-Chloro-2-(trifluoromethyl)benzyl]-1H-indazol-5-yl}methylidene)-2-{[(3R,4R)-4-hydroxypyrrolidin-3-yl]amino}-1,3-thiazol-4(5H)-one] was 37 nM; that for `O=C1N=C(NCCOCCO)S/C1=C\c1ccc2c(cnn2Cc2ccc(Cl)cc2Cl)c1` [Compound 8, 5-[1-(2,4-Dichloro-benzyl)-1H-indazol-5-ylmethylene]-2-[2-(2-hydroxy-ethoxy)-ethylamino]-thiazol-4-one] was 73 nM.

As to `CN1CCN(CCNC2=NC(=O)/C(=C/c3ccc4c(cnn4Cc4ccc(Cl)cc4C(F)(F)F)c3)S2)CC1` [Compound 39, 5-[1-(4-Chloro-2-trifluoromethyl-benzyl)-1H-indazol-5-ylmethylene]-2-[2-(4-methyl-piperazin-1-yl)-ethylamino]-thiazol-4-one], the EC50 stood at 6.6 nM. Molecule `O=C(O)CCCNC1=NC(=O)/C(=C/c2ccc3c(cnn3Cc3ccc(Cl)cc3C(F)(F)F)c2)S1` [Compound 37, 4-{5-[1-(4-Chloro-2-trifluoromethyl-benzyl)-1H-indazol-5-ylmethylene]-4-oxo-4,5-dihydro-thiazol-2-ylamino}-butyric acid] yielded an EC50 of 18 nM. The same measure for `O=C1N=C(NCc2cccnc2)S/C1=C\c1ccc2c(cnn2Cc2ccc(Cl)cc2C(F)(F)F)c1` [Compound 23, 5-[1-(4-Chloro-2-trifluoromethyl-benzyl)-1H-indazol-5-ylmethylene]-2-[(pyridin-3-ylmethyl)-amino]-thiazol-4-one]: 17 nM; for `O=C1N=C(NC(CO)CO)S/C1=C\c1ccc2c(cnn2Cc2ccc(Cl)cc2C(F)(F)F)c1` [Compound 38, 5-[1-(4-Chloro-2-trifluoromethyl-benzyl)-1H-indazol-5-ylmethylene]-2-(2-hydroxy-1-hydroxymethyl-ethylamino)-thiazol-4-one]: 56.8 nM. The same measure for `COc1ccc(Cn2ncc3cc(/C=C4\SC(NCCn5cncn5)=NC4=O)ccc32)c(C(F)(F)F)c1` [Compound 18, 5-[1-(4-Methoxy-2-trifluoromethyl-benzyl)-1H-indazol-5-ylmethylene]-2-(2-[1,2,4]triazol-1-yl-ethylamino)-thiazol-4-one]: 1.8 nM. On to `O=C1N=C(NCCn2cncn2)S/C1=C\c1ccc2c(cnn2Cc2ccc(C(F)(F)F)cc2C(F)(F)F)c1` [Compound 17, 5-[1-(2,4-Bis-trifluoromethyl-benzyl)-1H-indazol-5-ylmethylene]-2-(2-[1,2,4]triazol-1-yl-ethylamino)-thiazol-4-one], for which the EC50 was determined as 7.6 nM. The same measure for `O=C1N=C(N[C@@H]2CN3CCC2CC3)S/C1=C\c1ccc2c(cnn2Cc2ccc(Cl)cc2C(F)(F)F)c1` [Compound 27, 2-(1-Aza-bicyclo[2.2.2]oct-3(S)-ylamino)-5-[1-(4-chloro-2-trifluoromethyl-benzyl)-1H-indazol-5-ylmethylene]-thiazol-4-one]: 11 nM; for `O=C(O)CC(O)CNC1=NC(=O)/C(=C/c2ccc3c(cnn3Cc3ccc(Cl)cc3C(F)(F)F)c2)S1` (stereo not shown) [Compound 46, 4-{5-[1-(4-Chloro-2-trifluoromethyl-benzyl)-1H-indazol-5-ylmethylene]-4-oxo-4,5-dihydro-thiazol-2-ylamino}-3-hydroxy-butyric acid]: 22 nM; for `COc1ccc(Cn2ncc3cc(/C=C4\SC(NCCN5CCOCC5)=NC4=O)ccc32)c(C(F)(F)F)c1` [Compound 5, 5-[1-(4-Methoxy-2-trifluoromethyl-benzyl)-1H-indazol-5-ylmethylene]-2-(2-morpholin-4-yl-ethylamino)-thiazol-4-one]: 3.2 nM. The same measure for `COc1ccc(Cn2ncc3cc(/C=C4\SC(NC[C@H](O)CO)=NC4=O)ccc32)c(C(F)(F)F)c1` [Compound 9, 2-(2S,3-Dihydroxy-propylamino)-5-[1-(4-methoxy-2-trifluoromethyl-benzyl)-1H-indazol-5-ylmethylene]-thiazol-4-one]: 8.9 nM. The same measure for `CN(C)CCCNC1=NC(=O)/C(=C/c2ccc3c(cnn3Cc3ccc(C(F)(F)F)cc3C(F)(F)F)c2)S1` [Compound 2, 5-[1-(2,4-Bis-trifluoromethyl-benzyl)-1H-indazol-5-ylmethylene]-2-(3-dimethylamino-propylamino)-thiazol-4-one]: 12 nM.

(Values after patent publication US8445690B2, “Aminothiazolones as estrogen related receptor-alpha modulators” (Janssen Pharmaceutica NV, priority 2010, dated 2013).)
